We go through 23 molecules from ChEMBL document CHEMBL1130653, “Derivatization of the C12-C13 functional groups of epothilones A, B and C” (Bioorg Med Chem Lett, 1998).

Converted amounts (≈) assume the structure as drawn.

A short description of one experiment: Compound was tested for cytotoxicity against L929 fibroblast cell lines in mouse. It counts as functional, cell-based.
For `C/C(=C\c1csc(C)n1)[C@@H]1CC2OC(C)(C)OC2CCC[C@H](C)[C@H](O)[C@@H](C)C(=O)C(C)(C)[C@@H](O)CC(=O)O1` (stereo partly drawn), the 50% inhibitory concentration (IC50) was determined as 0.15 µg/mL (≈ 0.272 µM).
`C/C(=C\c1csc(C)n1)[C@@H]1CC(O)C(O)CCC[C@H](C)[C@H](O)[C@@H](C)C(=O)C(C)(C)[C@@H](O)CC(=O)O1` (stereo partly drawn) yielded an IC50 of over 4 µg/mL.
In the case of `C/C(=C\c1csc(C)n1)[C@@H]1C/C=C\CCC[C@H](C)[C@H](O)[C@@H](C)C(=O)C(C)(C)[C@@H](O)CC(=O)O1` [EPOTHILONE C], the IC50 worked out at 0.1 µg/mL (≈ 0.209 µM).

Another experiment in a line: Cytotoxicity against L929 fibroblast cell line; Weak cytotoxic activity. It counts as functional, cell-based, Mus musculus.
As for `C/C(=C\c1csc(C)n1)[C@@H]1C[C@H](O)[C@@](C)(Cl)CCC[C@H](C)[C@H](O)[C@@H](C)C(=O)C(C)(C)[C@@H](O)CC(=O)O1`, the IC50 entry is on record as “Weak cytotoxic activity”.
As for `C/C(=C\c1csc(C)n1)[C@@H]1C[C@H](O)[C@@H](Cl)CCC[C@H](C)[C@H](O)[C@@H](C)C(=O)C(C)(C)[C@@H](O)CC(=O)O1`, the IC50 entry is “Weak cytotoxic activity”.
As for `C/C(=C\c1csc(C)n1)[C@@H]1C[C@@H]2OC(C)(C)O[C@@H]2CCC[C@H](C)[C@H](O)[C@@H](C)C(=O)C(C)(C)C(O)CC(=O)O1` (stereo partly drawn), the concentration for half-maximal inhibition (IC50) entry is given as “Weak cytotoxic activity”.
Still for that read-out and setting: the entry for `C/C(=C\c1csc(C)n1)[C@@H]1CCCCCC[C@H](C)[C@H](O)[C@@H](C)C(=O)C(C)(C)C(O)CC(=O)O1` (stereo partly drawn) is “Weak cytotoxic activity”.
Consider `C/C(=C\c1csc(C)n1)[C@@H]1C[C@H](O)[C@@]2(C)CCC[C@H](C)[C@H](O)[C@@H](C)C(=O)C(C)(C)C(CC(=O)O1)O2`, for which the IC50 entry is recorded as “Weak cytotoxic activity”.
As for `C/C(=C\c1csc(C)n1)[C@@H]1C[C@H](O)[C@H](O)CCC[C@H](C)[C@H](O)[C@@H](C)C(=O)C(C)(C)C(O)CC(=O)O1` (stereo partly drawn), the 50% inhibitory concentration (IC50) entry is “Weak cytotoxic activity”.
With `C/C(=C\c1csc(C)n1)[C@H]1C[C@H]2OC(=O)C[C@H](O)C(C)(C)C(=O)[C@H](C)[C@@H](O)[C@@H](C)CCC[C@H]2O1`, the IC50 entry is “Weak cytotoxic activity”.
On to `C/C(=C\c1csc(C)n1)[C@@H]1C[C@H]2OCC[C@H](O)C(C)(C)C(=O)[C@H](C)[C@@H](O)[C@@H](C)CCC[C@H]2O1`, for which the IC50 entry is listed as “Weak cytotoxic activity”.
Take `C/C(=C\c1csc(C)n1)[C@@H]1C[C@H](O)[C@@](C)(O)CCC[C@H](C)[C@H](O)[C@@H](C)C(=O)C(C)(C)C(O)CC(=O)O1` (stereo partly drawn): the half-maximal inhibitory concentration (IC50) result is “Weak cytotoxic activity”.
In the case of `Cc1nc(CC(C)C(O)C[C@H]2OC(=O)C[C@H](O)C(C)(C)C(=O)[C@H](C)[C@@H](O)[C@@H](C)CCC[C@H]2O)cs1` (stereo partly drawn), the IC50 result was “Weak cytotoxic activity”.
With `C/C(=C\c1csc(C)n1)[C@@H]1C[C@@H](Cl)[C@H](O)CCC[C@H](C)[C@H](O)[C@@H](C)C(=O)C(C)(C)[C@@H](O)CC(=O)O1`, the 50% inhibitory concentration (IC50) entry is on record as “Weak cytotoxic activity”.
As for `C/C(=C\c1csc(C)n1)[C@@H]1C[C@@H](O)[C@@H](O)CCC[C@H](C)[C@H](O)[C@@H](C)C(=O)C(C)(C)C(O)CC(=O)O1` (stereo partly drawn), the IC50 result was “Weak cytotoxic activity”.
Regarding `COC(C[C@H]1OC(=O)C[C@H](O)C(C)(C)C(=O)[C@H](C)[C@@H](O)[C@@H](C)CCC[C@H]1O)C(C)Cc1csc(C)n1` (stereo partly drawn), the IC50 result is recorded as “Weak cytotoxic activity”.
With `C/C(=C\c1csc(C)n1)[C@@H](O)C[C@H]1OC(=O)C[C@H](O)C(C)(C)C(=O)[C@H](C)[C@@H](O)[C@@H](C)CCC[C@@]1(C)O`, the 50% inhibitory concentration (IC50) result was “Weak cytotoxic activity”.
Turning to `C/C(=C\c1csc(C)n1)[C@@H]1C[C@@H](O)[C@H](O)CCC[C@H](C)[C@H](O)[C@@H](C)C(=O)C(C)(C)C(O)CC(=O)O1` (stereo partly drawn), the IC50 entry is given as “Weak cytotoxic activity”.
For the molecule `C/C(=C\c1csc(C)n1)[C@H](O)C[C@H]1OC(=O)C[C@H](O)C(C)(C)C(=O)[C@H](C)[C@@H](O)[C@@H](C)CCC[C@@]1(C)O`, the 50% inhibitory concentration (IC50) result is reported as “Weak cytotoxic activity”.
Turning to `C/C(=C\c1csc(C)n1)[C@H]1C[C@H]2OCC[C@H](O)C(C)(C)C(=O)[C@H](C)[C@@H](O)[C@@H](C)CCC[C@H]2O1`, the IC50 result is given as “Weak cytotoxic activity”.
Regarding `C/C(=C\c1csc(C)n1)[C@@H]1C[C@H]2OC(=O)C[C@H](O)C(C)(C)C(=O)[C@H](C)[C@@H](O)[C@@H](C)CCC[C@H]2O1`, the concentration for half-maximal inhibition (IC50) result was “Weak cytotoxic activity”.
Same read-out and setting: under `C/C(=C\c1csc(C)n1)[C@@H]1C[C@@H]2O[C@@H]2CCC[C@H](C)[C@H](O)[C@@H](C)C(=O)C(C)(C)[C@@H](O)CC(=O)O1` [EPOTHILONE A] stands “Weak cytotoxic activity”; under `C/C(=C\c1csc(C)n1)[C@@H]1C[C@@H]2O[C@]2(C)CCC[C@H](C)[C@H](O)[C@@H](C)C(=O)C(C)(C)[C@@H](O)CC(=O)O1` [PATUPILONE], “Weak cytotoxic activity”.
